Laboratory results: ChEMBL document CHEMBL1201862, “PubChem BioAssay data set” (2004)
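48-hour exposure; five concentrations; linearly interpolated endpoints. GI50 = concentration required for 50% inhibition of growth.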 Active and inactive are the calls of the source. Rule as the data show it: active = GI50 up to about 1.1 µM and inactive = higher.

Key:
Assay in all cases: growth of human tumour cells (NCI), 48 h
OVCAR-8 = tested on: OVCAR-8
HOP-62 = tested on: HOP-62
OVCAR-5 = tested on: OVCAR-5
PC-3 = tested on: PC-3
HCC 2998 = tested on: HCC 2998
SNB-19 = tested on: SNB-19
SW-620 = tested on: SW-620
HL-60 = tested on: HL-60
NCI-H460 = tested on: NCI-H460
SF-268 = tested on: SF-268
NCI-H23 = tested on: NCI-H23
A549 = tested on: A549
T47D = tested on: T47D
OVCAR-3 = tested on: OVCAR-3
MDA-N = tested on: MDA-N
UACC-62 = tested on: UACC-62
SF-295 = tested on: SF-295
TK-10 = tested on: TK-10

Measured: GI50

C=CCc1cccc2cc(C(N)=O)c(=N)oc12
inactive: OVCAR-8 > 100 µM | HOP-62 > 100 µM | OVCAR-5 > 100 µM | PC-3 > 100 µM | HCC 2998 > 100 µM | SNB-19 > 100 µM | SW-620 > 100 µM | HL-60 > 100 µM | NCI-H460 > 100 µM | SF-268 > 10 µM | NCI-H23 > 100 µM | A549 > 100 µM | T47D 41.5 µM | OVCAR-3 > 100 µM | MDA-N > 100 µM | UACC-62 71.8 µM

Oc1ccc(/C=N/CC2CCCN3CCCCC23)cc1 (stereo not given)
inactive: OVCAR-8 44 µM | HOP-62 26.7 µM | OVCAR-5 31.3 µM | PC-3 26.4 µM | HCC 2998 20 µM | SNB-19 25.3 µM | NCI-H460 25.1 µM | SF-268 24.5 µM | SF-295 26.1 µM | TK-10 23.4 µM | NCI-H23 24.9 µM | A549 27.3 µM | T47D 31.3 µM | OVCAR-3 29.4 µM | MDA-N 18.4 µM | UACC-62 24.5 µM

COc1ccc(N2C(=O)C3c4[nH]c5ccccc5c4C4c5ccccc5CC4C3C2=O)cc1 (stereo not given)
inactive: OVCAR-8 > 100 µM | HOP-62 > 100 µM | OVCAR-5 > 100 µM | PC-3 > 100 µM | HCC 2998 > 100 µM | SNB-19 > 100 µM | SW-620 > 100 µM | HL-60 > 100 µM | NCI-H460 > 100 µM | SF-268 > 100 µM | SF-295 > 100 µM | TK-10 > 100 µM | NCI-H23 > 100 µM | A549 > 100 µM | T47D > 100 µM | OVCAR-3 > 100 µM | MDA-N > 100 µM | UACC-62 > 100 µM

CC(N)C(C)Cc1ccccc1 (stereo not given)
inactive: OVCAR-8 > 100 µM | HOP-62 > 100 µM | OVCAR-5 > 100 µM | PC-3 > 100 µM | HCC 2998 > 100 µM | SNB-19 > 100 µM | SW-620 > 100 µM | HL-60 > 100 µM | NCI-H460 > 100 µM | SF-268 > 100 µM | SF-295 > 100 µM | TK-10 > 100 µM | NCI-H23 > 100 µM | A549 > 100 µM | T47D > 100 µM | OVCAR-3 > 100 µM | MDA-N > 100 µM | UACC-62 > 100 µM

Cc1ccccc1NC(=O)C(=O)CC(=O)c1sc(Nc2ccccc2[N+](=O)[O-])nc1C
inactive: OVCAR-8 43.4 µM | HOP-62 25.2 µM | OVCAR-5 90.2 µM | PC-3 28.1 µM | HCC 2998 24.4 µM | SNB-19 34.7 µM | SW-620 36.1 µM | HL-60 60.4 µM | NCI-H460 27.4 µM | SF-268 38.5 µM | SF-295 22.5 µM | TK-10 25.7 µM | NCI-H23 36.8 µM | A549 34.8 µM | T47D 27.2 µM | OVCAR-3 32 µM | MDA-N 35.7 µM | UACC-62 18.2 µM

Cc1ccc2c(c1)C(=O)c1nc(C)ccc1C2=O
inactive: OVCAR-8 27 µM | HOP-62 69 µM | OVCAR-5 86.1 µM | PC-3 35.2 µM | HCC 2998 34.9 µM | SNB-19 22.4 µM | SW-620 33.5 µM | HL-60 21.3 µM | SF-268 32 µM | SF-295 38.1 µM | TK-10 38.3 µM | NCI-H23 19.5 µM | A549 31 µM | T47D 38.3 µM | OVCAR-3 57.1 µM | MDA-N 20.2 µM | UACC-62 24.3 µM

N=C(N)N/N=C\c1ccc(C2CCNCC2)cc1
inactive: OVCAR-8 > 100 µM | HOP-62 > 100 µM | OVCAR-5 > 100 µM | PC-3 > 100 µM | HCC 2998 > 100 µM | SNB-19 > 100 µM | SW-620 > 100 µM | NCI-H460 > 100 µM | SF-268 > 100 µM | SF-295 > 100 µM | TK-10 > 100 µM | NCI-H23 > 100 µM | A549 > 100 µM | T47D > 100 µM | OVCAR-3 > 100 µM | MDA-N > 100 µM | UACC-62 > 100 µM

CCOC(=O)c1c(-c2ccc(OC)cc2)c(C#N)c(=S)n(C2OC(CO)C(O)C(O)C2O)c1C (stereo not given)
inactive: OVCAR-8 > 100 µM | HOP-62 > 100 µM | OVCAR-5 > 100 µM | PC-3 > 100 µM | HCC 2998 > 100 µM | SNB-19 > 100 µM | SW-620 > 100 µM | HL-60 > 100 µM | SF-268 > 100 µM | SF-295 > 100 µM | TK-10 > 100 µM | NCI-H23 > 100 µM | A549 > 100 µM | T47D > 100 µM | OVCAR-3 > 100 µM | MDA-N > 100 µM

NC(=O)C[S+]([O-])CC(N)C(=O)O (stereo not given)
inactive: OVCAR-8 > 100 µM | HOP-62 > 100 µM | OVCAR-5 > 100 µM | PC-3 > 100 µM | HCC 2998 > 100 µM | SNB-19 > 100 µM | SW-620 > 100 µM | NCI-H460 > 100 µM | SF-268 > 100 µM | SF-295 > 100 µM | TK-10 > 100 µM | NCI-H23 > 100 µM | A549 > 100 µM | T47D > 100 µM | OVCAR-3 > 100 µM | MDA-N > 100 µM | UACC-62 > 100 µM

N/C(CSCCSC/C(N)=N/O)=N\O
inactive: HOP-62 > 100 µM | OVCAR-5 > 100 µM | PC-3 > 100 µM | HCC 2998 > 100 µM | SNB-19 > 100 µM | SW-620 > 100 µM | HL-60 > 100 µM | NCI-H460 > 100 µM | SF-268 > 100 µM | TK-10 > 100 µM | NCI-H23 > 100 µM | A549 > 100 µM | T47D > 100 µM | OVCAR-3 > 100 µM | MDA-N > 100 µM | UACC-62 > 100 µM

Cn1c(=O)c2nc(CCNC(=O)c3ccccc3)[nH]c2n(C)c1=O
inactive: OVCAR-8 > 100 µM | HOP-62 > 100 µM | OVCAR-5 > 100 µM | PC-3 > 100 µM | HCC 2998 > 100 µM | SNB-19 > 100 µM | SW-620 > 100 µM | NCI-H460 > 100 µM | SF-268 > 100 µM | SF-295 > 100 µM | TK-10 > 100 µM | NCI-H23 > 100 µM | A549 > 100 µM | T47D > 100 µM | OVCAR-3 > 100 µM | MDA-N > 100 µM | UACC-62 > 100 µM

Cc1ccc2nc(-c3ccc(N4C(=O)C(Cl)C4c4ccc(Cl)cc4)cc3)sc2c1 (stereo not given)
inactive: OVCAR-8 28.5 µM | HOP-62 20.6 µM | OVCAR-5 18.4 µM | PC-3 10.5 µM | SNB-19 33.1 µM | SW-620 21.5 µM | HL-60 29.9 µM | NCI-H460 21.9 µM | SF-268 22.8 µM | SF-295 15.1 µM | TK-10 16.4 µM | NCI-H23 21.6 µM | A549 17.3 µM | T47D 27.8 µM | OVCAR-3 16.3 µM | MDA-N 17.9 µM | UACC-62 15.3 µM

CN(C)c1cccc2c(S(=O)(=O)NCCN)cccc12 [DANSYL ETHYLENEDIAMINE]
inactive: HOP-62 > 100 µM | OVCAR-5 > 100 µM | PC-3 > 100 µM | HCC 2998 39.5 µM | SNB-19 > 100 µM | SW-620 > 100 µM | HL-60 9.91 µM | NCI-H460 > 100 µM | SF-268 > 100 µM | SF-295 > 100 µM | NCI-H23 > 100 µM | A549 > 100 µM | T47D > 100 µM | OVCAR-3 > 100 µM | MDA-N > 100 µM | UACC-62 > 100 µM

CSc1nc2c(N)ncnc2n1C
inactive: OVCAR-8 > 100 µM | HOP-62 > 100 µM | OVCAR-5 > 100 µM | PC-3 > 100 µM | HCC 2998 > 100 µM | SNB-19 > 100 µM | SW-620 > 100 µM | NCI-H460 > 100 µM | SF-268 > 100 µM | SF-295 > 100 µM | TK-10 > 100 µM | A549 > 100 µM | T47D > 100 µM | OVCAR-3 > 100 µM | MDA-N > 100 µM | UACC-62 > 100 µM

C=CC1(O)CCCC=C1COCc1ccccc1 (stereo not given)
inactive: OVCAR-8 53 µM | HOP-62 > 100 µM | OVCAR-5 > 100 µM | PC-3 67.8 µM | HCC 2998 > 100 µM | SNB-19 > 100 µM | HL-60 27.4 µM | NCI-H460 > 100 µM | SF-268 67 µM | SF-295 > 100 µM | TK-10 > 100 µM | NCI-H23 98.6 µM | A549 > 100 µM | T47D 64 µM | MDA-N 73.8 µM | UACC-62 > 100 µM

Cc1cc(Cc2cc(Cc3cc(C)cc(C(C)(C)C)c3O)c(C)cc2C)c(O)c(C(C)(C)C)c1
inactive: OVCAR-8 24.9 µM | HOP-62 17.5 µM | OVCAR-5 19.6 µM | PC-3 > 100 µM | HCC 2998 13.5 µM | SNB-19 17.2 µM | SW-620 17.9 µM | HL-60 20.9 µM | SF-268 15.9 µM | SF-295 18.9 µM | TK-10 24.1 µM | NCI-H23 17.4 µM | A549 15.4 µM | T47D 14 µM | OVCAR-3 16.4 µM | MDA-N 18.6 µM | UACC-62 13.4 µM

CC(C)(CO)CNc1nc(N)nc(Cl)c1/C=N/O
inactive: OVCAR-8 31.6 µM | HOP-62 30.9 µM | OVCAR-5 41.2 µM | PC-3 49.5 µM | HCC 2998 71.1 µM | SW-620 82.6 µM | HL-60 29.8 µM | NCI-H460 30 µM | SF-268 8.91 µM | SF-295 14.1 µM | TK-10 35 µM | NCI-H23 3.45 µM | A549 16.9 µM | T47D 4.31 µM | OVCAR-3 23 µM | MDA-N 41.2 µM | UACC-62 31.8 µM
